Columns and labels:
[1] = tested on: CoA-IT; experiment: CoA-IT activity assay in U937 cell microsomes; assay type: biochemical
Source text: The following is a method to measure CoA-IT activity and the effects of compounds on CoA-IT activity. The assay is based upon mixing cellular material containing CoA-IT activity with a stable lyso phospholipid such as […] and measuring the production of phospholipid product such as […] occurring in the absence of added CoA or CoA-fatty acids.
Any inflammatory cell that contains high levels of CoA-IT activity can be used, such as neutrophils, macrophages or cell lines such as U937 cells. U937 cells were obtained from American Type Culture Collection and grown in RPMI-1640 media (Gibco, Grand Island, N.Y.) supplemented with 10% fetal bovine serum (Hyclone, Logan, UT) at 37° C., 5% CO2. Cells were grown without differentiation (basal state) by any agent, such as dimethyl sulfoxide. As used herein, “inflammatory cells” include, but are not limited to neutrophils, macrophages, monocytes, lymphocytes, eosinophils, basophils, and mast cells.
Microsomes were prepared using standard techniques. In this case, cells were washed with a buffer of 250 mM sucrose, 10 mM Tris, 1 mM EGTA, 1 mM MgCl2, pH 7.4 and ruptured by N2 cavitation (750 psi, 10 minutes). The ruptured cells were centrifuged 1000×g, 5 minutes. The resulting supernatant was centrifuged at 20,000×g,˜20 minutes. Microsomes were prepared from this supernatant by centrifugation at 100,000×g, 60 minutes. The resulting pellet was washed once with assay buffer (150 mM NaCl, 10 mM Na2KPO4, 1 mM EGTA, pH 7.4), recentrifuged and the pellet resuspended in assay buffer (4-20 mg protein/ml) and was stored at −80° C. until assayed.
CoA-II activity was measured in 1.5 ml centrifuge tubes in a total volume of 100 ul. Microsomes were diluted in assay buffer to the desired protein concentration (6-20 ug/tube). The reaction was initiated by addition of [3H]1-alkyl-2-lyso-sn-glycero-3-phosphocholine (GPC) (˜0.1 uCi/tube) and 1 μM final cold 1-alkyl-2-lyso-GPC in assay buffer with 0.25 mg/ml fatty acid-poor bovine serum albumin (BSA) (Calbiochem, La Jolla, Calif.). [3H]1-alkyl-2-lyso-GPC, approximately 50 Ci/mmol, was from NEN-Dupont (Boston, Mass.) and cold 1-alkyl-2-lyso-GPC was from Biomol (Plymouth Meeting, Pa.). Microsomes were pretreated with desired agents for the desired time (10 minutes) before the addition of [3H]1-alkyl-2-lyso-GPC. The reaction was run for the desired tlime (10 minutes) at 37° C. The reaction was stopped and the lipids extracted by addition of 100 ul of chloroform:methanol (1:2, v/v) followed by 100 ul of chloroform and 100 ul of 1 M KCI. The samples were vortexed and centrifuged at high speed in a microfuge for 2-3 minutes. An aliquot of the chloroform-extracted materials were separated, usually by TLC in chloroform/methanol/acetic acid/water (50:25:8:4, v/v), visualized by radioscanning (Bioscan) and the product, [3H]1-alkyl-2-acyl-GPC, was scraped and quantified by liquid scintillation spectroscopy. […] Other methods can be used to separate substrate from product, including but not limited to column chromatography, affinity chromatography and post reaction derivitization.
Protein concentration were assessed using the protein assay reagents from Bio Rad (Richmond, Calif.).

[2] = tested on: neoplastic cell lines; conditions: literature, background; several neoplastic cell lines; cited from earlier work
[3] = tested on: CoA-IT; conditions: literature, background; cited from earlier work

In the case of `COc1cccc2c1cc([N+](=O)[O-])c1c(C(=O)O)cc3c(c12)OCO3` [aristolochic acid], the “effect on CoA-IT activity” value ([1]; at concentrations up to 500 μM) is reported as “no effect”.

In the case of `CCOP(=O)(CCCCCCCn1c(-c2ccccc2)c(-c2ccccc2)n(-c2ccccc2)c1=O)OCC` [SK&F 98625, Diethyl 7-(3,4,5-triphenyl-2-oxo-2,3-dihydroimidazol-1yl)heptane phosphonate], the “antiproliferative / apoptosis effect” value [2] is listed as “possess antiproliferative properties” and the “inhibition of CoA-IT” value [3] is listed as “capable of inhibiting CoA-IT”.

For `CN(C)CCC=C1c2ccccc2COc2ccccc21` [Doxepine], the “effect on CoA-IT activity” value ([1]; at concentrations up to 100 μM) was “did not inhibit”.

With `Cc1cc(C(C)(C)C)c(O)c(C(C)(C)C)c1` [BHT] the “effect on CoA-IT activity” value ([1]; at concentrations up to 100 μM) was “no effect”.

With `COc1ccc2cc([C@H](C)C(=O)O)ccc2c1` [naproxen] the “effect on CoA-IT activity” value ([1]; at concentrations up to 100 μM) was “no effect”.

For `COC(=O)CCCO[C@@H]1NC(=O)[C@H]1NC(c1ccccc1)(c1ccccc1)c1ccccc1` [Example 17, (3S,4S)-4-[3-(Methoxycarbonyl)propoxy]-3-(triphenylmethylamino)azetidin-2-one], the “activity in microsomal CoA-IT assay under other conditions” value ([1]; increased uM or longer pretreatment time) was “active at either increased uM or longer pretreatment time”.

For `CCN(CC)CCCC(C)Nc1c2ccc(Cl)cc2nc2ccc(OC)cc12` (stereo not drawn) [quinacrine], the “effect on CoA-IT activity” value ([1]; at concentrations up to 500 μM) was “no effect”.

In the case of `O=C(Nc1ccc(Cl)c(C(F)(F)F)c1)Nc1cc(C(F)(F)F)ccc1Oc1cc(Cl)c(Cl)cc1S(=O)(=O)O` [SK&F 45905, 2-[2-[3-(4-Chloro-3-trifluoromethylphneyl)ureido]-4-tifluromethylphenoxy]-4,5-dichlorobenzene sulfonic acid], the “antiproliferative / apoptosis effect” value [2] is listed as “possess antiproliferative properties” and the “inhibition of CoA-IT” value [3] is listed as “capable of inhibiting CoA-IT”.

With `COc1ccc2c(c1)c(CC(=O)O)c(C)n2C(=O)c1ccc(Cl)cc1` [indomethicin] the “effect on CoA-IT activity” value ([1]; at concentrations up to 100 μM) was “no effect”.

With `O=S1(=O)CCn2c1nc(-c1ccc(F)cc1)c2-c1ccncc1` [6-(4′-Fluorophenyl)-5-(4-pyridyl)2,3-dihydroimidzo-[2,1-b]thiazole-dioxide] the “effect on CoA-IT activity” value ([1]; at concentrations up to 100 μM) was “no effect”.

In the case of `Fc1ccc(-c2nc3n(c2-c2ccncc2)CCS3)cc1` [6-(4′-Fluorophenyl)-5-(4-pyridyl)-2,3-dihydroimidzo-[2,1-b]thiazole], the “effect on CoA-IT activity” value ([1]; at concentrations up to 100 μM) is reported as “no effect”.

In the case of `CCCCCCCCCCCCCCCCCCOCC(COP(=O)([O-])OCC[N+](C)(C)C)OC` (stereo not drawn) [ET-18-0-CH3, 1-0-octadecyl-2-0-methyl-phosphocholine], the “antiproliferative / apoptosis effect” value [2] is given as “attenuate cell proliferation and induce apoptosis” and the “inhibition of CoA-IT” value [3] is given as “potent inhibitor”.
